Source: patent publication US8889883B2, “BODIPY structure fluorescence dye for neural stem cell probe” (National University of Singapore, priority 2010, dated 2014)

Test system: E14.5 fetal mouse brain cells
Assay: Neurosphere assay of FACS-sorted fetal mouse brain cells
Type: cell-based
Settings: CDr3, SSEA-1, Aldefluor, CD133 sorted cells
Procedure: Next, we were interested to test whether CDr3 can be used for the isolation of NSC from the heterogeneous populations of cells. According to the protocol described by Bibel et al.^7, we induced differentiation of E14 to generate FABP7-positive radial glial cells. The embryoid bodies generated from E14 in the absence of leukemia inhibitory factor were treated with retinoic acid for 2 days until dissociation into single cell suspension. The cells were stained with CDr3 and the CDr3bright and CDr3dim cells were collected separately by FACS. Each cell population was stained with FABP7 antibody and analyzed by flow cytometry. […] For the NSC isolation from the brain tissue, we incubated the E14.5 fetal mouse brain primary cells with CDr3, and the CDr3^bright and CDr3^dim cells were collected separately by FACS for gene expression analysis by real time RT-PCR and neurosphere assay. The expression levels of FABP7, Hes1, Musashi, Nestin and Pax6 in CDr3^bright cells were more than 3-fold higher than in CDr3^dim cells, while the differences of Hes5, Sox2 and Bmi1 expression levels were less than 2-fold (FIG. 5). […]
E14.5 fetal mouse brains were trypsinized in 0.25% trypsin with 1 mM EDTA solution (Invitrogen) for 30 mins at 37° C. before neutralization with FBS. […] The number and size of neurospheres generated from each group were measured after 6 days culture. […]

SMILES: Cc1cc(C)n2c1C=C1C=CC(CCC(=O)NCC=O)=[N+]1[B-]2(F)F [Aldefluor, BODIPY-aminoacetaldehyde]
- sizes of neurospheres from sorted cells: all similar
